Data from ChEMBL document CHEMBL1140656, “Design, synthesis, and evaluation of 3,4-disubstituted pyrazole analogues as anti-tumor CDK inhibitors” (Bioorg Med Chem Lett, 2007).

Experiments:
HCT-116 = assay: Antiproliferative activity against human HCT116 cells; format: functional, cell-based
HeLa = assay: Antiproliferative activity against human HeLa cells; format: functional, cell-based
Aurora kinase A = target: T1, Aurora kinase A (Homo sapiens, UniProt O14965); assay: Inhibition of aurora-A
T1 sequence (O14965 whole entry): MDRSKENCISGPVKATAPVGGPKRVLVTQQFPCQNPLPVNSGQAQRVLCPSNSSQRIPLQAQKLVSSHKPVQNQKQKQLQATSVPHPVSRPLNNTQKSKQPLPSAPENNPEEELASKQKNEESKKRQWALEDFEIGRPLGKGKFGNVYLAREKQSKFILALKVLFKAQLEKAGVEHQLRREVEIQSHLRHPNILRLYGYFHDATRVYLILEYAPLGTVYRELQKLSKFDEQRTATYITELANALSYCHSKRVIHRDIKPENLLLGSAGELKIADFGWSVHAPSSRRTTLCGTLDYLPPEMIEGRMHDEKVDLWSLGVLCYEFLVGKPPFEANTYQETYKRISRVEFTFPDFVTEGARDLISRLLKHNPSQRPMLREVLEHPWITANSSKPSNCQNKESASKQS

[1] = target: Receptor tyrosine-protein kinase erbB-2 (Homo sapiens, UniProt P04626); assay: Inhibition of HER2
Sequence of Receptor tyrosine-protein kinase erbB-2 (P04626 whole entry): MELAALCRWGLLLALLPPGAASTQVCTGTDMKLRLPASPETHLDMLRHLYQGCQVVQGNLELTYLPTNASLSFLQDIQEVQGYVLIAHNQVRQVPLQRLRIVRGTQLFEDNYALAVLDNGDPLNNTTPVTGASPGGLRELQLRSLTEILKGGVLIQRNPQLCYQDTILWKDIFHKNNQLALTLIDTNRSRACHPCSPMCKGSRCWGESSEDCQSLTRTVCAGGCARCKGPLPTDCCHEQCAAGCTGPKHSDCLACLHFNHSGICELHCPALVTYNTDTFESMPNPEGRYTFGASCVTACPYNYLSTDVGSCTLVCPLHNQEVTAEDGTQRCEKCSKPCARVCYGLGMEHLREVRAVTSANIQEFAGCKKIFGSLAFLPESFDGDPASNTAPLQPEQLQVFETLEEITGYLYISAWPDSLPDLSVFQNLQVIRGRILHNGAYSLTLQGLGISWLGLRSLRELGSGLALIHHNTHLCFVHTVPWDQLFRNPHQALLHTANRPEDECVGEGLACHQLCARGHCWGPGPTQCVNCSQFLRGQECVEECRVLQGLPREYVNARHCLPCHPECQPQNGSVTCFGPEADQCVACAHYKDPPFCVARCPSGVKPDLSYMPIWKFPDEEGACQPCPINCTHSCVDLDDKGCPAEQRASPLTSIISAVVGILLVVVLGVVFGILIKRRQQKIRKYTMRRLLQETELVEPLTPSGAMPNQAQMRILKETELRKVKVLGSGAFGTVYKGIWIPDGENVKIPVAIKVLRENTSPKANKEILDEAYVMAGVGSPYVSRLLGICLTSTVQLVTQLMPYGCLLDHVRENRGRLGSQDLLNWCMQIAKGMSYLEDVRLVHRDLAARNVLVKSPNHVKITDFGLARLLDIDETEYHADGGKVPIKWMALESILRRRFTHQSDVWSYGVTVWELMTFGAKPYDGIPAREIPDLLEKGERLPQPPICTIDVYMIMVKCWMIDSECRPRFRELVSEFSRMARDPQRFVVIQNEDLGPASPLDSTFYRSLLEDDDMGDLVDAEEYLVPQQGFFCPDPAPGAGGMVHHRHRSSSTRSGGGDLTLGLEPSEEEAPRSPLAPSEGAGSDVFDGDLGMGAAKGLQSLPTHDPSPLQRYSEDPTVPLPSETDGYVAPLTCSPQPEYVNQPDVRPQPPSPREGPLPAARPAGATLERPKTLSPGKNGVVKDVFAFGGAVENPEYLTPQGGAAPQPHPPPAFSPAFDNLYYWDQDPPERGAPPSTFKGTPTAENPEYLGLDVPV

[2] = Inhibition of CDK1/cyclin B; set-up: species or system Homo sapiens
A-375 = assay: Antiproliferative activity against human A375 cells; format: functional, cell-based
[3] = target: Vascular endothelial growth factor receptor 2 (Homo sapiens, UniProt P35968); assay: Inhibition of VEGFR2
Sequence of Vascular endothelial growth factor receptor 2 (P35968 whole entry): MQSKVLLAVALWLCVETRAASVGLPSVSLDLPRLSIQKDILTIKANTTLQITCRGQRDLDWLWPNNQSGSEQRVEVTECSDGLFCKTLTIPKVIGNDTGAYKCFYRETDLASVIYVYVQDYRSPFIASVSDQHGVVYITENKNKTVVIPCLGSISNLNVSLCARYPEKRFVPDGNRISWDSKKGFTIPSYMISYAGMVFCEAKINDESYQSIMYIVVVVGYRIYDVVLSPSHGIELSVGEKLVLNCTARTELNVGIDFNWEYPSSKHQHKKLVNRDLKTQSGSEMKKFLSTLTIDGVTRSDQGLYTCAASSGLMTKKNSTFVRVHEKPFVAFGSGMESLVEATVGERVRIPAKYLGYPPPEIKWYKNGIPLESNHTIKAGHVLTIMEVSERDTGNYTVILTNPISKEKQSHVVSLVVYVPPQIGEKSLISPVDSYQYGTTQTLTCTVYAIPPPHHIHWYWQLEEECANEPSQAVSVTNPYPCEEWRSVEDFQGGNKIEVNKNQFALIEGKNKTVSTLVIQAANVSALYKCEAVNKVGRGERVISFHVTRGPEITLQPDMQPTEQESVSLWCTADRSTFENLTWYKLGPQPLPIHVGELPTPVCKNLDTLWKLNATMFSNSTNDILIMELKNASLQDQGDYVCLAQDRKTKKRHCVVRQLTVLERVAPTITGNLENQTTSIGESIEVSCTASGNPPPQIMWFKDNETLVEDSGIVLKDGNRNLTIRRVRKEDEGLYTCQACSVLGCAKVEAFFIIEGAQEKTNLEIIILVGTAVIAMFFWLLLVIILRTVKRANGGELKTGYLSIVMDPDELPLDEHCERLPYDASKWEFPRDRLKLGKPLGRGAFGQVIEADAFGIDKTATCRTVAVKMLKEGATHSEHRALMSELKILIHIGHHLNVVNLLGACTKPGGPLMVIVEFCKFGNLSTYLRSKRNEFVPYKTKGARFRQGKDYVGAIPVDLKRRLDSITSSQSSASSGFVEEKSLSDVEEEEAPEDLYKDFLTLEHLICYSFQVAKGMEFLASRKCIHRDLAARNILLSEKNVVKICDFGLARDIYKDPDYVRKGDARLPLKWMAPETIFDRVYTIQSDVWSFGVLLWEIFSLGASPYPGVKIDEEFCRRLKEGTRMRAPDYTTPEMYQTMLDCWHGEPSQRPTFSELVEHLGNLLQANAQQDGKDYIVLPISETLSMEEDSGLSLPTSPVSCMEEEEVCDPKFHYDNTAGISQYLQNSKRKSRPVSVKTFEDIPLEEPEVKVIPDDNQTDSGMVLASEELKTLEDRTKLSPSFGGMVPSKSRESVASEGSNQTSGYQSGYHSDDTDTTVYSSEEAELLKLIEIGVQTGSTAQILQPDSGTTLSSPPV

Row | SMILES | IC50 (HCT-116) [nM] | IC50 (HeLa) [nM] | IC50 (Aurora kinase A) [nM] | IC50 [1] [nM] | IC50 [2] [nM] | IC50 (A-375) [nM] | IC50 [3] [nM]
1 | CCNCc1cncc(/C=C/c2c[nH]nc2-c2nc(C(F)(F)F)c[nH]2)c1 | 1700 | 3200 | > 10000 | > 100000 | 18 | 7400 | 10000
2 | COc1ccc2nc(-c3n[nH]cc3/C=C/c3cnccc3C)[nH]c2c1 | 3200 | 2800 | 550 | > 10000 | 160 | 4300 | 760
3 | COc1cncc(/C=C/c2c[nH]nc2-c2nc3ccc(OC)cc3[nH]2)c1 | 750 | 890 | 400 | – | 47 | 910 | 650
4 | CCNC(=O)c1cncc(/C=C/c2c[nH]nc2-c2nc3ccc(OC)cc3[nH]2)c1 | 2500 | 3700 | > 100000 | – | 110 | 3600 | 1350
5 | CCNCc1cncc(/C=C/c2c[nH]nc2-c2nc3ccc(OC)cc3[nH]2)c1 | 190 | 620 | 590 | – | 4.6 | 550 | 820
6 | FC(F)(F)c1c[nH]c(-c2n[nH]cc2/C=C/c2cccnc2)n1 | 24000 | > 10000 | 120 | > 100000 | 480 | 47000 | 29000
7 | FC(F)(F)c1c[nH]c(-c2n[nH]cc2/C=C/c2cncc3ccccc23)n1 | 2900 | 3600 | 300 | – | 110 | 5600 | 3060
8 | CN1CCN(c2ccc3nc(-c4n[nH]cc4/C=C/c4cccnc4)[nH]c3c2)CC1 | 190 | 460 | > 10000 | – | 29 | 860 | 290
9 | N#Cc1c[nH]c(-c2n[nH]cc2/C=C/c2cccnc2)n1 | 70700 | > 10000 | > 10000 | > 100000 | 700 | > 10000 | > 10000
10 | COc1ccc2nc(-c3n[nH]cc3/C=C/c3cncc4ccccc34)[nH]c2c1 | 2700 | 2800 | 530 | > 100000 | 150 | 3000 | 610
11 | COc1ccc2nc(-c3n[nH]cc3/C=C/c3cncc(C#N)c3)[nH]c2c1 | – | – | 4200 | > 100000 | > 1000 | – | 1700
12 | COC(=O)c1cncc(/C=C/c2c[nH]nc2-c2nc3ccc(OC)cc3[nH]2)c1 | 3100 | 4400 | > 100000 | > 100000 | 890 | 3100 | 1280
13 | COc1ccc2nc(-c3n[nH]cc3/C=C/c3cccnc3)[nH]c2c1 | 2200 | 1800 | 510 | > 10000 | 33 | 2500 | 970
